From patent publication US7732611B2, “Amine salt of carbostyril derivative” (Otsuka Pharmaceutical Co., Ltd., priority 2004, dated 2010)

Columns and labels:
[1] = Water-solubility test at 25° C. of the isolated salts (HPLC); assay type: physicochemical; details: shaken 3 hours (5 days for meglumine salt), filtered, concentration of Compound A by HPLC
Procedure: Preparation of the Test Solution
After shaking, the mixture was filtered through a 0.45 μm membrane filter (0.2 μm for meglumine salt). 1 mL of the filtrate was precisely pipetted and thereto was added 50% DMF so as to be totally 50 mL in precise. 2 mL of this solution was precisely pipetted and thereto was added 50% DMF so as to be totally 20 mL in precise to give a sample solution.
Preparation of the Standard Solution
Using each 10 μL of the sample solutions and the standard solutions, the liquid chromatographic analyses were carried out in the following conditions.

[2] = Solubility test at 25° C. of the salt in a preparation prepared when used without isolating the salt (HPLC); assay type: physicochemical; details: water, Compound A plus equimolar amine, salt not isolated, shaken 7 days, 0.2 μm filter
Procedure: And then as to a sample to which arginine was added, the suspension was filtered through a 0.2 μm membrane filter. […] And then the mixture was filtrated through a 0.2 μm membrane filter. According to the same method as Example 8, the solubilities (%) of each salt was measured by HPLC.

Solubility (%) [1]: 2.9%
Solubility (%) [2]: >7.4%
Compound: CC(O)CNCC(C)O.O=C(NC(Cc1cc(=O)[nH]c2ccccc12)C(=O)O)c1ccc(Cl)cc1 (centres unmarked) [Compound A·diisopropanolamine salt, 2-(4-chlorobenzoylamino)-3-(2-quinolon-4-yl)propionic acid.diisopropanolamine salt]
